pEC50, pKd: −log10 of the molar value. Active and inactive are the calls of the source. No cut-off for these calls is given here.
Each compound was assayed against T1, Lysosomal acid glucosylceramidase (Homo sapiens, UniProt P04062) (assay: Positive allosteric modulation of GCase in human Fibroblast cells using GBA1-FQ2 as substrate preincubated for 24 hrs followed by substrate addition and measured after 3 hrs by Hoechst 33342 staining based imaging analysis). Settings: not given.
T1 sequence (P04062 whole entry): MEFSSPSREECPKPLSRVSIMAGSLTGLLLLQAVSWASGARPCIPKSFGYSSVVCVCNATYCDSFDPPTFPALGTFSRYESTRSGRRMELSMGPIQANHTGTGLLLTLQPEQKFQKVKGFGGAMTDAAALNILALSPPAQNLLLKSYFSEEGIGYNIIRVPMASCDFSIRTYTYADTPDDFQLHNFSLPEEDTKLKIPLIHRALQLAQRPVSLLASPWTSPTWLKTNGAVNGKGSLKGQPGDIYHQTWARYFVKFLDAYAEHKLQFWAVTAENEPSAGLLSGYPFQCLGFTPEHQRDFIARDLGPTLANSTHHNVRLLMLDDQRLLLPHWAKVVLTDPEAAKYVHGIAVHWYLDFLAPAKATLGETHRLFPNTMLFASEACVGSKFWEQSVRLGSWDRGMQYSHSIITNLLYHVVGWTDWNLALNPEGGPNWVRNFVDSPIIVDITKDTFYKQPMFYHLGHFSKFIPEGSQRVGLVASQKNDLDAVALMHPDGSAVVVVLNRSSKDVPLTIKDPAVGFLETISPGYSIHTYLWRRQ
Assay type: cell-based
In the case of C=C(C)c1cccc([C@@H](N)CN(C)S(=O)(=O)c2cc(F)cc(F)c2)c1, the pEC50 was 5.05.
For CCCOc1cc(F)cc(S(=O)(=O)N(C)C[C@@H](N)c2cccc(N(C)C)c2)c1, the pEC50 was 5.05.

These compounds were tested against T2, Lysosomal acid glucosylceramidase (Homo sapiens) (UniProt P04062) (assay: not given). Settings: Fibroblast, dose 0.5 mM, time 27.0 hrs.
T2 sequence (whole entry): T1 sequence (P04062 whole entry)
In the case of O[C@H]1[C@H](O)[C@@H](O)[C@@H]2O[C@@H]2[C@@H]1O, the inhibition was “Active”.

These compounds were tested against T1, Lysosomal acid glucosylceramidase (assay: biochemical). Settings: not given.
With CN(C[C@H](N)c1cccc(Cl)c1)S(=O)(=O)c1cc(F)cc(F)c1 the pKd was 6.60.
Work on CN(CC(F)F)c1cccc([C@@H](N)CN(C)S(=O)(=O)c2cc(F)cc(F)c2)c1 yielded a pKd of 6.66.
c1ccc(CC2CCNCC2)cc1 gave a pKd of 4.72.
Compound Cc1ccc(S(=O)(=O)NCC(C)N)cc1 (racemic) has a pKd of 4.00.
N[C@H](CNS(=O)(=O)c1cccc(F)c1)c1ccccc1 showed a pKd of 5.52.
N[C@H](CNS(=O)(=O)c1cc(F)cc(F)c1)c1ccccc1 was tested, and the pKd was 6.00.
NCC(O)CNS(=O)(=O)c1ccccc1F (racemic) gave a pKd of 3.74.
With C=C(C)c1cccc([C@@H](N)CN(C)S(=O)(=O)c2cc(F)cc(F)c2)c1 the pKd was 7.30.
CCCOc1cc(F)cc(S(=O)(=O)N(C)C[C@@H](N)c2cccc(N(C)C)c2)c1 gave a pKd of 7.74.
Compound N[C@H](CNS(=O)(=O)c1ccccc1)c1ccccc1 has a pKd of 5.15.
With CN(C[C@@H](N)c1cccc(Br)c1)S(=O)(=O)c1cc(F)cc(F)c1 the pKd was 6.74.
In the case of O=S(=O)(NCC1CC1)c1ccccc1, the pKd was 3.39.

— ChEMBL document CHEMBL5523728, “Fragment-Based Discovery of a Series of Allosteric-Binding Site Modulators of β-Glucocerebrosidase” (J Med Chem, 2024)
